This passage reports Ki results from BindingDB's records for doi:10.1016/j.bmcl.2003.10.011 (University of Hamburg, 2003).

In the experiment the target is Alpha-galactosidase (Aspergillus niger). Put plainly: Compound tested for inhibition of alpha-galactosidase from Aspergillus niger.

As to `C[C@@H](OC[C@H]1O[C@@H](O)[C@H](O)[C@H](O)[C@@H]1O)[C@H](N)C(=O)O` [2-(R)-Amino-3-(3,4,5,6-tetrahydroxy-tetrahydro-pyran-2-ylmethoxy)-butyric acid], affinity was put at a Ki of 300 µM.

For `N[C@@H](COC[C@H]1O[C@@H](O)[C@H](O)[C@H](O)[C@@H]1O)C(=O)O` [2-Amino-3-(3,4,5,6-tetrahydroxy-tetrahydro-pyran-2-ylmethoxy)-propionic acid], the Ki stood at 400 µM.

What is called Ki is a measure of affinity in units of concentration, obtained from inhibition or displacement. A low value points to a stronger hold on the target.
